Where a name gives a salt, the structure may show the parent alone.
Columns and labels:
Type in all cases: cell-based
ABCG1 mRNA [1] = assay: Expression modulatory activity for ABCG1 mRNA in mouse macrophages; settings: C57BL6/J mouse peritoneal macrophages, test compound 1 μM, 24 hours; Not added = 100.0; Mean ± SEM (n = 3)
Procedure: (§1) A C57BL6/J mouse (male, 10 weeks old) was intraperitoneally administered with 1 mL of a 5% thioglycolic acid medium (Wako Pure Chemical Industries, Ltd.). After 4 days, intraperitoneal cells were collected with phosphate-buffered saline (PBS), and macrophages were separated in a 3% BSA-containing DMEM medium as cells adhesive to a plate. After incubation of the macrophages overnight in a DMEM medium containing 10% human lipoprotein-removed serum, the medium was replaced with a DMEM medium containing a test compound (1 μM) and 10% fetal bovine serum and cultured for 24 hours.
(§2) After the medium was removed, whole RNA was extracted from the obtained macrophage using RNeasy Mini Kit (QIAGEN) and then the expression amounts of the LXRαmRNA, ABCG1mRNA and mouse acidic ribosomal protein (36B4) mRNA as an internal standard were measured by real-time quantitative RT-PCR according to TaqMan PCR method using a TaqMan EZ RT-PCR kit (Applied Biosystems). […]
(§3) Real-time quantitative PCR was carried out according to the similar manner to Experimental Example 1.
(§4) Based on the ratio of the expression amount of the LXRαmRNA and ABCG1mRNA relative to the internal standard (expression amount of mouse acidic ribosomal protein mRNA), the expression modulatory activities for the LXRα mRNA and ABCG1 mRNA of the test compound were evaluated.

ABCG1 mRNA [2] = assay: Expression modulatory activity for ABCG1 mRNA in human monocyte-derived cells; settings: THP-1 cells, test compound 1 μM, 24 hours; Not added = 100.0; Mean ± SEM (n = 3)
Procedure: (§5) To a PMA (phorbol 12-myristate 13-acetate, 400 ng/mL)-FBS (fetal bovine serum, 10%)-containing RPMI medium was suspended human monocyte -derived THP-1 cells (ATCC) (7×10^5 cell/mL), and the obtained suspension was dispensed into a 24-well plate (0.5 mL/well) and cultured for 3 days. After removing the medium, a FBS (fetal bovine serum, 10%)—containing RPMI1640 medium into which a test compound (1 μM) had been added was added to the 24-well plate and the plate was cultured for 24 hours. Whole RNA was extracted from the cultured cells using RNeasy Mini Kit (QIAGEN), and then the expression amounts of LXRα mRNA, ABCA1 mRNA, ABCG1 mRNA and Human acidic ribosomal protein (huPO; 36B4) mRNA as an internal standard were measured by real-time quantitative RT-PCR according to TaqMan PCR method using a TaqMan EZ RT-PCR kit (Applied Biosystems). […]
(§6) The expression amount of Human acidic ribosomal protein (huPO; 36B4) mRNA was measured using Pre-Developed TaqMan Assay Reagents Endogenous Control (Human Acidic ribosomal protein (huPO)) (Applied Biosystems), and VIC was used as a reporter dye and TAMRA was used as a quencher dye. […]

[3] = system: human monocyte-derived THP-1 cells; assay: Foaming-suppressant activity in human monocyte-derived cells (intracellular lipid content); settings: for Intracellular lipid content FC (free cholesterol) / Intracellular lipid content TC (total cholesterol) / Intracellular lipid content CE (cholesteryl ester): test compound 1 μM, rabbit β-VLDL loading 2 days; for Intracellular lipid content FC (free cholesterol): Not added = 80.8 ± 1.2, Mean ± SEM (n = 3); for Intracellular lipid content TC (total cholesterol): Not added = 114.8 ± 1.8, Mean ± SEM (n = 3); for Intracellular lipid content CE (cholesteryl ester): calculated as TC minus FC, Not added = 34.0 ± 2.3, Mean ± SEM (n = 3)
Procedure: In a RPMI1640 medium containing a test compound (1 μM), PMA (phorbol 12-myristate 13-acetate, 400 ng/ml) and 10% fetal bovine serum was suspended human monocyte-derived THP-1 cells (purchased from Dainippon Pharmaceutical Co., Ltd.). The obtained suspension was dispensed into a 12-well plate (7.2×10^5 cells) and was cultured for 3 days. The obtained cell was further cultured in a RPMI1640 medium containing the test compound and 0.2 mM oleic acid-0.2% bovine serum albumin complex and rabbit β-VLDL (200 μg cholesterol/mL) for 2 days, and then the total lipids in the cells were extracted with a mixed solution of n-hexane/isopropanol (3:2). The amounts of the total cholesterol (TC) and free cholesterol (FC) in the extract were measured with a enzyme method [using Cholesterol E-Test Wako (trade name, Wako Pure Chemical Industries, Ltd.)], and the amount of cholesteryl ester (CE) was calculated by the difference between the two cholesterol amounts. The intracellular lipid content was then evaluated by dividing the amounts of these lipids by the amount of cell protein (measured using BCA assay kit (Pierce)). In the Table, TC represents total cholesterol, FC represents free cholesterol and CE represents cholesteryl ester.

LXRα mRNA [4] = assay: Expression modulatory activity for LXRα mRNA in mouse macrophages; settings: C57BL6/J mouse peritoneal macrophages, test compound 1 μM, 24 hours; Not added = 100.0; Mean ± SEM (n = 3)
Procedure: as §1, §2, §3, §4

ACAT-1 mRNA = assay: Expression modulatory activity for ACAT-1 mRNA in human monocyte-derived cells; settings: THP-1 cells, test compound 1 μM, 2 days + 1 day; Not added = 100.0; Mean ± SEM (n = 3)
Procedure: (§7) In a RPMI medium containing a test compound (1 μM), PMA (phorbol 12-myristate 13-acetate, 400 ng/mL)-FBS (fetal bovine serum, 10%) was suspended human monocyte-derived THP-1 cells (purchased from Dainippon Pharmaceutical Co., Ltd.) (7.2×10^5 cell/mL). The obtained suspension was dispensed into a 24 well plate (0.5 mL/well) and cultured for 2 days (3.6×10^5 cells). After the medium was removed, a RPMI medium containing the test compound (1 μM), PMA(400 ng/mL)-FBS(10%) was added to the plate and it was cultured further for 1 day.
(§8) After the medium was removed, whole RNA was extracted from the obtained cells using RN easy Mini Kit (QIAGEN), and the expression amounts of ACAT-1 mRNA, CEH mRNA and human acidic ribosomal protein (huPO; 36B4) mRNA as an internal standard were measured by real-time quantitative RT-PCR according to TaqMan PCR method using a TaqMan EZ RT-PCR kit (Applied Biosystems).
In the above mentioned method, for the measurement of the expression amount of the ACAT-1mRNA, oligo DNAs represented by
5′-[…]-3′ (SEQ ID NO: 19),
5′-[…]-3′ (SEQ ID NO: 20) and […]
(§9) The expression amount of human acidic ribosomal protein (huPO; 36B4) mRNA was measured according to the method similar to Experimental Example 1. Real-time quantitative RT-PCR was carried out similarly to Experimental Example 1. […]

CEH mRNA = assay: Expression modulatory activity for CEH mRNA in human monocyte-derived cells; settings: THP-1 cells, test compound 1 μM, 2 days + 1 day; Not added = 100.0; Mean ± SEM (n = 3)
Procedure: as §7, §8
Furthermore, for the measurement of the expression amount of the CEH mRNA, oligo DNAs represented by
5′-AGCCCTTGGCTGAGCAAA-3′ (SEQ ID NO: 22),
5′-GTCGCAGGCAGTGAACCAT-3′ (SEQ ID NO: 23) and
5′-[…]-3′ (SEQ ID NO: 24) […]
as §9

LXRα mRNA [5] = assay: Expression modulatory activity for LXRα mRNA in human monocyte-derived cells; settings: THP-1 cells, test compound 1 μM, 24 hours; Not added = 100.0; Mean ± SEM (n = 3)
Procedure: as §5, §6

ABCA1 mRNA = assay: Expression modulatory activity for ABCA1 mRNA in human monocyte-derived cells; settings: THP-1 cells, test compound 1 μM, 24 hours; Not added = 100.0; Mean ± SEM (n = 3)
Procedure: as §5, §6

Row | Compound | Expression amount of mRNA (Relative ratio % to internal standard) ABCG1 (ABCG1 mRNA [1]) [%] | Expression amount of mRNA (Relative ratio % to internal standard) ABCG1 (ABCG1 mRNA [2]) [%] | Intracellular lipid content FC (free cholesterol) [3] [μg/mg cell protein] | Intracellular lipid content TC (total cholesterol) [3] [μg/mg cell protein] | Intracellular lipid content CE (cholesteryl ester) [3] [μg/mg cell protein] | Expression amount of mRNA (Relative ratio % to internal standard) LXRα (LXRα mRNA [4]) [%] | Expression amount of mRNA (Relative ratio % to internal standard) ACAT-1 (ACAT-1 mRNA) [%] | Expression amount of mRNA (Relative ratio % to internal standard) CEH (CEH mRNA) [%] | Expression amount of mRNA (Relative ratio % to internal standard) LXRα (LXRα mRNA [5]) [%] | Expression amount of mRNA (Relative ratio % to internal standard) ABCA1 (ABCA1 mRNA) [%] | foaming-suppressant activity ([3]; conclusion based on the decrease in the amount of cholesteryl ester, 1 μM)
1 | CCc1ccc(CCOc2ccc(CC3SC(=O)NC3=O)cc2)nc1 (stereo not drawn) [Pioglitazone hydrochloride, reference compound] | 195.2 ± 23.1 | 252.0 ± 9.2 | 72.7 ± 0.4 | 100.3 ± 0.3 | 27.6 ± 0.5 | 145.3 ± 17.9 | 65.8 ± 1.9 | 148.6 ± 9.2 | 165.7 ± 4.6 | 108.2 ± 3.5 | 
2 | Cc1oc(-c2ccccc2)nc1COc1ccc(CO/N=C(\CCC(=O)O)c2ccccc2)cc1 [Compound (7), E-4-[4-(5-methyl-2-phenyl-4-oxazolylmethoxy)benzyloxyimino]-4-phenylbutyric acid] | 159.1 ± 6.1 | 265.5 ± 22.0 | 72.0 ± 1.3 | 95.8 ± 1.4 | 23.7 ± 1.9 | 173.0 ± 9.9 | 66.1 ± 1.5 | 159.4 ± 1.9 | 160.1 ± 9.0 | 113.5 ± 5.5 | have foaming-suppressant activity

Reference: patent US20040077689A1, “Abc expression promoters” (priority 2001, published 2004)
